# Several values for one entry are separate records, joined by “and”; a condition that tells them apart may be missing. Equal values may be shown once.
# What was measured:
# [1] = n = 1; cited from earlier work
# [2] = cited from earlier work; for urinary metabolite of ME in urine treated with glucuronidase/sulfatase, share of the dose / urinary metabolite of ME, share of the dose: rat urine 24 h after oral ME 200 mg/kg
# [3] = set-up: method as in PMID 22610610, PMID 22445790; conditions: calculated from published data; cited from earlier work
# [4] = range over 12 experimental settings; ME 100, 200 or 500 μM; calculated from published data, molar units; cited from earlier work
# [5] = range over five models (male and female Sprague–Dawley and Fischer 344 rats, pooled human); cited from earlier work
# [6] = set-up: method as in PMID 22445790; conditions: cited from earlier work
# SULT1A1 = tested on: SULT1A1; set-up: method as in PMID 22337896; conditions: cited from earlier work
# DNA [7] = conditions: cited from earlier work
# DNA [8] = conditions: cited from earlier work; remark: listed apart in the source
# human topoisomerase I = tested on: human topoisomerase I; set-up: method as in PMID 26542539; conditions: cited from earlier work
# [9] = rat, in vivo
# Procedure: The metabolism of ME and its isomer, MIE, was also studied in rats in vivo.[27] Urine collected over a period of 24 h after oral administration of ME (200 mg/kg) contained a total of ten metabolites (each accounting for ≥1% of the dose); together, they represented 95% of the dose. Among the microsomal metabolites described in the preceding sections, only 6-hydroxy-ME was detected in native urine (2% of the dose). In human liver microsomes, it contributed 0–3.4% to the metabolism of ME, less than that in liver microsomes from other species [calculated from data published by Cartus et al.[11] and Al-Subeihi et al.[26]]. For this reason, and as 6-hydroxy-ME is not involved in bioactivation, it is not suited as a biomarker. Eugenol and chavibetol were found in urine treated with glucuronidase/sulfatase at levels of 7 and 4% of the dose, respectively. Obviously, these metabolites are not suited as biomarkers for exposure to ME, as they may also be found after exposure to eugenol and chavibetol. […] Although in this study, 95% of the dose of ME was recovered as metabolites in urine, metabolites were additionally detected in bile. […] Glutathione (GSH) conjugates and other metabolites of the mercapturic acid pathways were not detected in that study; however, the method used (extraction of the acidified urine or bile with ether followed by gas chromatography) was not suitable for their detection.
# [10] = human, in vivo; cited from earlier work
# human CYPs = conditions: cited from earlier work
# [11] = tested on: primary cultures of rat hepatocytes; conditions: cited from earlier work
# [12] = Controlled exposure study in humans: urinary excretion of E-3′-MEMA after a meal with 100 g basil pesto (1.7 mg ME), isotope-dilution LC–MS/MS; assay type: in vivo, human
# Procedure: Based on the findings of the pilot investigation, a more comprehensive (“main”) exposure study was performed. The study was conducted according to the guidelines of the Declaration of Helsinki and was approved by the ethics committee of the University of Potsdam under application number 4/2019. It was carried out at the Institute of Nutritional Science (University of Potsdam), where 12 healthy volunteers (six men and six women) with conventional nutrition habits were recruited. All participants gave written informed consent. The mean age of the test group was 31.6 ± 4.6 years (range: 25–42 years), and the mean body weight was 76.4 ± 10.0 kg (range: 61–94 kg). To guarantee that urinary excretion of MEMA was solely attributed to the consumption of the basil pesto served, all volunteers were asked to avoid ME-containing food 2 days before and after the consumption of the study meal. Therefore, they received an information sheet specifying potential ME sources. After overnight fasting, the participants consumed a meal comprising 100 g of self-made pesto containing 30 g of basil (equal to 1.7 mg of ME; recipe see Table S2) and 200 g of pasta. No further restrictions were exerted. To ensure proper urine sampling, the volunteers were encouraged to drink beverages as they preferred. Urine was collected quantitatively in capped polyethylene containers prior to the controlled exposure and during the following intervals: 0–1, 1–2, 2–3, 3–4, 4–5, 5–6, 6–8, 8–10, 10–12, 12–24, 24–36, and 36–48 h. After the volumes were measured, the urine was aliquoted in two 15 mL reaction tubes per time interval and stored at −20 °C until analysis.
# “System 2” was configured as follows: an HPLC 1100 (Agilent Technologies) was connected to a QTrap6500 triple quadrupole-hybrid ion trap mass spectrometer (Sciex, Darmstadt, Germany) equipped with an electrospray ionization source operating in negative mode. The chromatographic separation of the analytes was performed by ion pair chromatography on a Nucleoshell RP 18plus column (2.0 × 150 mm, 2.7 μm; Macherey-Nagel). The eluents were water containing 10 mM tributylamine and 10 mM acetic acid (eluent A) and acetonitrile (eluent B). The flow rate of the gradient (0 → 1 min: 2% eluent B; 1 → 8 min: 2 → 15% eluent B; 8 → 17.5 min: 15 → 35% eluent B; 17.5 → 18 min: 35 → 100% eluent B; 18 → 20 min: 100% eluent B; 20 → 20.1 min: 100 → 2% eluent B; 20.1 → 23 min: 2% eluent B) was 0.5 mL/min. […] The MRM mode was employed for quantitative analysis with the declustering potential and the entrance potential at −30 and −10 V, respectively. For the quantifier mass transitions of E-3′-MEMA (m/z 338.1 → 209.1) and d6-E-3′-MEMA (m/z 344.1 → 215.1), a collision energy of −20 V and a cell exit potential of −5 V were used. […]
structure (smiles),measurement,setting,value
"COc1ccc(C=CCSC[C@H](NC(C)=O)C(=O)O)cc1 [mercapturic acid of estragole, N-acetyl-S-[3′-(4-methoxyphenyl)allyl]-L-Cys]",urinary excretion of the mercapturic acid as share of intake,[1],13.2 ppm
"C=CCc1ccc(O)c(OC)c1 [Eugenol, eugenol]","urinary metabolite of ME in urine treated with glucuronidase/sulfatase, share of the dose",[2],7 % of the dose
"COc1ccc(C(=O)O)cc1OC [3,4-dimethoxybenzoic acid]","urinary metabolite of ME, share of the dose",[2],2 % of the dose
C=CCc1cc(OC)c(OC)cc1O [6-hydroxy-ME],contribution of 6-hydroxy-ME to the metabolism of ME in human liver microsomes,[3],0–3.4%
same,contribution of the metabolite to the metabolism of ME (sum of all metabolites),[4],0–27.4%
same,contribution of the metabolite to ME metabolism calculated from Vmax values,[5],3.9–4.7%
same,"urinary metabolite of ME, share of the dose",[2],2 % of the dose
"COc1ccc(C(=O)NCC(=O)O)cc1OC [3,4-dimethoxybenzoylglycine]","urinary metabolite of ME, share of the dose",[2],30 % of the dose
"Cc1ccc(CC(=O)O)cc1C [3,4-Dimethylphenylacetic acid]","urinary metabolite of ME, share of the dose",[2],3 % of the dose
C=CC(O)c1ccc(OC)c(OC)c1 (stereo not drawn) [1′-hydroxy-ME],"catalytic efficiency of glucuronidation, factor lower in human than in male rat liver microsomes",[6],125 times
same,efficiency of human SULT1A1 in activation to a mutagen relative to its mouse orthologue,SULT1A1,about 3 times
same,contribution of the metabolite to the metabolism of ME (sum of all metabolites),[4],36.4–69.4%
same,contribution of the metabolite to ME metabolism calculated from Vmax values,[5],36.2–50.1%
same,DNA adduct levels in mice carrying a human SULT1A1–1A2 transgene compared to wild-type mice,DNA [7],nine times higher
same,"potency in induction of hepatomas and formation of DNA adducts in mouse liver, compared with ME",DNA [7],more potent than ME
COc1ccc(C=CCNc2nc3c(ncn3[C@H]3C[C@H](O)[C@@H](CO)O3)c(=O)[nH]2)cc1OC [N^2-(methylisoeugenol-3′-yl)-2′-deoxyguanosine],human lung samples with DNA adducts present,DNA [8],10 out of 10
same,human liver samples with DNA adducts present,DNA [8]; surgical human liver samples,150 out of 151
C=CCc1ccc(OC)c(O)c1 [chavibetol],"urinary metabolite of ME in urine treated with glucuronidase/sulfatase, share of the dose",[2],4 % of the dose
"COc1ccc(C(O)CC(=O)O)cc1OC (stereo not drawn) [3-hydroxy-3-(3,4-dimethoxyphenyl)propionic acid]","urinary metabolite of ME, share of the dose",[2],2 % of the dose
"COc1ccc(CC(O)C(=O)O)cc1OC (stereo not drawn) [2-hydroxy-3-(3,4-dimethoxyphenyl)propionic acid]","urinary metabolite of ME, share of the dose",[2],20 % of the dose
"COc1ccc(CC(O)CO)cc1OC (stereo not drawn) [2′,3′-dihydroxy-2′,3′-dihydro-ME]",contribution of the metabolite to ME metabolism calculated from Vmax values,[5],21.8–44.0%
"COc1ccc(C=CC(=O)NCC(=O)O)cc1OC [3,4-dimethoxycinnamoylglycine]","urinary metabolite of ME, share of the dose",[2],24 % of the dose
COc1ccc(/C=C/C=O)cc1OC [3′-oxo-MIE],effect on human topoisomerase I activity in vitro,human topoisomerase I,inhibit
same,contribution of the metabolite to the metabolism of ME (sum of all metabolites),[4],0–6.8%
"COc1ccc(C=CCO)cc1OC [3′-hydroxy-MIE, 3′-hydroxymethylisoeugenol]",contribution of the metabolite to the metabolism of ME (sum of all metabolites),[4],10.4–42.4%
same,contribution of the metabolite to ME metabolism calculated from Vmax values,[5],10.3–12.9%
same,share of the dose excreted as urinary metabolites that appeared to be formed via 3′-hydroxy-MIE,"[2]; rats, ME 200 mg/kg",62 % of the dose
same,share of the urinary metabolites that appeared to be formed via 3′-hydroxy-MIE,"[2]; rats, ME 200 mg/kg",65%
"C=CCc1ccc(OC)c(OC)c1 [ME, Methyleugenol]",share of the dose of ME converted via 1′-sulfooxy-ME to 3′-hydroxy-MIE (suggested),[9],14.3–41.7%
same,reduction of DNA adduct formation by ME in mouse liver by genetic knockout of SULT1A1,"DNA [7]; mouse, in vivo",99%
same,half-life of elimination of ME from serum,[10],about 90 min
same,time of peak serum levels of ME after the meal,[10],5 min
same,contribution of 1′-hydroxylation to hepatic ME metabolism at low substrate concentration,human CYPs,38.4%
same,"contribution of 2′,3′-epoxidation to hepatic ME metabolism at low substrate concentration",human CYPs,58.8%
same,induction of UDS by ME in the presence of the SULT1 inhibitor pentachlorophenol,[11],fully suppressed
"COc1ccc(C=CCSC[C@H](NC(C)=O)C(=O)O)cc1OC [E-3′-MEMA, N-acetyl-S-[3′-(3,4-dimethoxyphenyl)allyl]-L-cysteine]","total amount of E-3′-MEMA excreted, range among 12 participants",[12]; 1.7 mg ME in basil pesto,3–274 ng/person
same,"interindividual variability of E-3′-MEMA excretion, factor between highest and lowest values",[12]; 12 participants,~80
same,E-3′-MEMA ratio of ME intake,"[12]; individual participant, urine 0–48 h after 100 g basil pesto containing 1.7 mg ME",33 ppm and 20 ppm and 85 ppm and 14 ppm and 1 ppm and 2 ppm and 4 ppm and 16 ppm and 6 ppm and 11 ppm
same,E-3′-MEMA total urinary excretion,"[12]; individual participant, urine 0–48 h after 100 g basil pesto containing 1.7 mg ME, sum of all samples with concentration > LOD",105 ng and 63 ng and 274 ng and 44 ng and 3 ng and 6 ng and 12 ng and 51 ng and 18 ng and 36 ng and 20 ng and 52 ng

# Source: paper PMC10664145, “Urinary Excretion of Mercapturic Acids of the Rodent Carcinogen Methyleugenol after a Single Meal of Basil Pesto: A Controlled Exposure Study in Humans” (Chemical Research in Toxicology, 2023)
